Measured values reported in patent publication US8993756B2 (Merck Sharp & Dohme Corp., priority 2011, dated 2015).

Key:
JAK3 = JAK3 (Homo sapiens (Human), UniProt P52333); assay: Jak Biochemical HTRF Assay (JAK3); conditions: recombinant GST-tagged catalytic domain, [ATP] 2.9 μM
JAK2 = JAK2 (Homo sapiens (Human), UniProt O60674); assay: Jak Biochemical HTRF Assay (JAK2); conditions: recombinant GST-tagged catalytic domain, [ATP] 8.5 μM
Chain of JAK2 (O60674 849-1124): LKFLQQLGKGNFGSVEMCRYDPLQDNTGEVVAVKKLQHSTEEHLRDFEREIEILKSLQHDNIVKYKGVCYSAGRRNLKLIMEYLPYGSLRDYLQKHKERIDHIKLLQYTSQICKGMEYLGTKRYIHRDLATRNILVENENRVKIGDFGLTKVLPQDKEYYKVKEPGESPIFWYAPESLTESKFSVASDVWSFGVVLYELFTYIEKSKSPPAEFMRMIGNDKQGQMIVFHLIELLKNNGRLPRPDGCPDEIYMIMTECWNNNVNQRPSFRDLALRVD

Chain of JAK3 (P52333 822-1111): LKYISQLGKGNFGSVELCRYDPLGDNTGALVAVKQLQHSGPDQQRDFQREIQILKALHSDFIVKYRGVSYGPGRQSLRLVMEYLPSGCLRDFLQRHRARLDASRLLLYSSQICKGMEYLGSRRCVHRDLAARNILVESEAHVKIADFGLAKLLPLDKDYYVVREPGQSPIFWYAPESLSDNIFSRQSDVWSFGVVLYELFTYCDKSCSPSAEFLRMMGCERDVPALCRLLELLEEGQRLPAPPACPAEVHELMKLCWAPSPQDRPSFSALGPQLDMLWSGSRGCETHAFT

IC50 (JAK3; given as range class) [nM] | IC50 (JAK2; given as range class) [nM] | IC50 (JAK3) [nM] | IC50 (JAK2) [nM] | SMILES
10 to 500 | > 500 |  |  | CCOC(=O)c1c[nH]c2ncnc(-c3ccc(C)c(NCC(F)(F)F)c3)c12 [Example 3-2, ethyl 4-{4-methyl-3-[(2,2,2-trifluoroethyl)amino]phenyl}-7H-pyrrolo[2,3-d]pyrimidine-5-carboxylate]
 |  | 3.3 | 90 | CCOC(=O)c1c[nH]c2ncnc(-c3ccc(N(C)C)cc3)c12 [Example 1-47, ethyl 4-[4-(dimethylamino)phenyl]-7H-pyrrolo[2,3-d]pyrimidine-5-carboxylate]
 |  | 8.2 | > 1500 | C/C=C/S(=O)(=O)Nc1cccc(-c2ncnc3[nH]cc(C(=O)OCC)c23)c1 [Example 10-2, ethyl 4-(3-{[(1E)-prop-1-en-1-ylsulfonyl]amino}phenyl)-7H-pyrrolo[2,3-d]pyrimidine-5-carboxylate]
10 to 500 | 10 to 500 |  |  | CCOC(=O)c1c[nH]c2ncnc(-c3cccc(OC(F)F)c3)c12 [Example 1-59, ethyl 4-[3-(difluoromethoxy)phenyl]-7H-pyrrolo[2,3-d]pyrimidine-5-carboxylate]
10 to 500 | > 500 |  |  | C=C(C)C(=O)Nc1cccc(-c2ncnc3[nH]cc(C4=NCC(C)O4)c23)c1 (stereo not drawn) [Example 28, N-(3-(5-(5-Methyl-4,5-dihydrooxazol-2-yl)-7H-pyrrolo[2,3-d]pyrimidin-4-yl)phenyl)methacrylamide]
10 to 500 | > 500 |  |  | c1ccc(COc2cccc(-c3c[nH]c4ncnc(-c5ccccc5)c34)c2)cc1 [Example 32-5, 5-[3-(benzyloxy)phenyl]-4-phenyl-7H-pyrrolo[2,3-d]pyrimidine]
 |  | 0.14 | > 1500 | CCOC(=O)c1c[nH]c2ncnc(-c3cccc(NC(=O)C4=CC(=O)CC4)c3)c12 [Example 5-36, ethyl 4-(3-{[(3-oxocyclopent-1-en-1-yl)carbonyl]amino}phenyl)-7H-pyrrolo[2,3-d]pyrimidine-5-carboxylate]
10 to 500 | > 500 |  |  | CCOC(=O)c1c[nH]c2ncnc(-c3ccc4c(c3)CN(C(=O)OC(C)(C)C)CCO4)c12 [Example 1-79, tent-butyl 7-[5-(ethoxycarbonyl)-7H-pyrrolo[2,3-d]pyrimidin-4-yl]-2,3-dihydro-1,4-benzoxazepine-4(5H)-carboxylate]
 |  | 0.66 | > 1500 | C=C(CN1CCOCC1)C(=O)Nc1cccc(-c2ncnc3[nH]cc(C(=O)OCC)c23)c1 [Example 5-41, ethyl 4-(3-{[2-(morpholin-4-ylmethyl)acryloyl]amino}phenyl)-7H-pyrrolo[2,3-d]pyrimidine-5-carboxylate]
10 to 500 | > 500 |  |  | CCOC(=O)c1c[nH]c2ncnc(-c3cccc(Nc4nccnc4C#N)c3)c12 [Example 6-2, Ethyl-4-{3-[(3-cyanopyrazin-2-yl)amino]phenyl}-7H-pyrrolo[2,3-d]pyrimidine-5-carboxylate]
10 to 500 | > 500 |  |  | CCOC(=O)c1c[nH]c2ncnc(-c3cnn(C)c3)c12 [Example 1-27, ethyl 4-(1-methyl-1H-pyrazol-4-yl)-7H-pyrrolo[2,3-d]pyrimidine-5-carboxylate]
 |  | 3.1 | 93 | COc1cccc(-c2c[nH]c3ncnc(-c4ccccc4)c23)c1 [Example 32-3, 5-(3-methoxyphenyl)-4-phenyl-7H-pyrrolo[2,3-d]pyrimidine]
 |  | 5 | > 1500 | C=C(C)C(=O)Nc1cccc(-c2ncnc3[nH]cc(-c4cnco4)c23)c1 [Example 30, N-(3-(5-(Oxazol-5-yl)-7H-pyrrolo[2,3-d]pyrimidin-4-yl)phenyl)methacrylamide]
 |  | 8.3 | > 1500 | C=C(C)C(=O)Nc1cccc(-c2ncnc3[nH]cc(C4CCOCC4)c23)c1 [Example 23, N-(3-(5-(Tetrahydro-2H-pyran-4-yl)-7H-pyrrolo[2,3-d]pyrimidin-4-yl)phenyl)methacrylamide]
10 to 500 | > 500 |  |  | CCOC(=O)c1c[nH]c2ncnc(-c3cncc(CO)c3)c12 [Example 1-106, ethyl 4-[5-(hydroxymethyl)pyridin-3-yl]-7H-pyrrolo[2,3-d]pyrimidine-5-carboxylate]
10 to 500 | > 500 |  |  | CCOC(=O)c1c[nH]c2ncnc(-c3cccc(NC(=O)/C=C/c4ccc(C(F)(F)F)cc4)c3)c12 [Example 5-44, ethyl 4-[3-({(2E)-3-[4-(trifluoromethyl)phenyl]prop-2-enoyl}amino)phenyl]-7H-pyrrolo[2,3-d]pyrimidine-5-carboxylate]

Second part, the compound before the results:

SMILES | IC50 (JAK3; given as range class) [nM] | IC50 (JAK2; given as range class) [nM] | IC50 (JAK3) [nM] | IC50 (JAK2) [nM]
CCOC(=O)c1c[nH]c2ncnc(-c3cccc(NC(=O)/C=C/c4c(C)nn(C)c4C)c3)c12 [Example 5-15, ethyl 4-(3-{[(2E)-3-(1,3,5-trimethyl-1H-pyrazol-4-yl)prop-2-enoyl]amino}phenyl)-7H-pyrrolo[2,3-d]pyrimidine-5-carboxylate] | 10 to 500 | > 500 |  | 
C=C(C)C(=O)Nc1cccc(-c2ncnc3[nH]cc(-c4cncs4)c23)c1 [Example 21-7, N-(3-(5-(thiazol-5-yl)-7H-pyrrolo[2,3-d]pyrimidin-4-yl)phenyl)methacrylamide] |  |  | 1.8 | > 500
C=C(C)C(=O)Nc1cccc(-c2ncnc3[nH]cc(-c4ccccc4F)c23)c1 [Example 20-3, N-{3-[5-(2-fluorophenyl)-7H-pyrrolo[2,3-d]pyrimidin-4-yl]phenyl}-2-methylprop-2-enamide] |  |  | 0.96 | > 1500
CCOC(=O)c1c[nH]c2ncnc(C3=CCCCC3)c12 [Example 1-23, ethyl 4-cyclohex-1-en-1-yl-7H-pyrrolo[2,3-d]pyrimidine-5-carboxylate] |  |  | 6 | 62
C=C(C)C(=O)Nc1cccc(-c2ncnc3[nH]cc(-c4ccccn4)c23)c1 [Example 21-1, N-(3-(5-(Pyridin-2-yl)-7H-pyrrolo[2,3-d]pyrimidin-4-yl)phenyl)methacrylamide] | 10 to 500 | > 500 |  | 
CCOC(=O)c1c[nH]c2ncnc(-c3ccc4sc(C)nc4c3)c12 [Example 1-25, ethyl 4-(2-methyl-1,3-benzothiazol-5-yl)-7H-pyrrolo[2,3-d]pyrimidine-5-carboxylate] | 10 to 500 | 10 to 500 |  | 
CCOC(=O)c1c[nH]c2ncnc(-c3cccc(N4CCS(=O)(=O)CC4)c3)c12 [Example 1-95, ethyl 4-[3-(1,1-dioxidothiomorpholin-4-yl)phenyl]-7H-pyrrolo[2,3-d]pyrimidine-5-carboxylate] | 10 to 500 | > 500 |  | 
C=CCOC(=O)c1c[nH]c2ncnc(-c3ccc4cn(C)nc4c3)c12 [Example 2-2, Prop-2-en-1-yl 4-(2-methyl-2H-indazol-6-yl)-7H-pyrrolo[2,3-d]pyrimidine-5-carboxylate] | 10 to 500 | 10 to 500 |  | 
C=C(C)C(=O)Nc1cc(C#N)cc(-c2ncnc3[nH]cc(C(=O)OCC)c23)c1 [Example 4-24, ethyl 4-{3-cyano-5-[(2-methylacryloyl)amino]phenyl}-7H-pyrrolo[2,3-d]pyrimidine-5-carboxylate] |  |  | 0.068 | > 1500
CCOC(=O)c1c[nH]c2ncnc(-c3cccc(Nc4nc(Cl)ns4)c3)c12 [Example 6-1, Ethyl 4-{3-[(3-chloro-1,2,4-thiadiazol-5-yl)amino]phenyl}-7H-pyrrolo[2,3-d]pyrimidine-5-carboxylate] |  |  | 9.2 | 109
CCOC(=O)c1c[nH]c2ncnc(-c3cccc(C(=O)NCC#N)c3)c12 [Example 8-1] | 10 to 500 | > 500 |  | 
